Like-named read-outs stand apart in the source and are kept apart here.
Columns and labels:
Assay type in all cases: cell-based, Candida albicans
[1] = tested on: cdr1/CDR1 heterozygous mutant and cdr1/cdr1 deletion strain; experiment: Azole-synergizer effect in cdr1 mutants; conditions: with FLC
From the text: Strains and growth condition. The wild-type Candida albicans strains used were SC5314 and CaSS1. Cdr1 heterozygous were from Merck Sharp & Dohme Corp. Double Barcoded (DBC) library of heterozygous Candida albicans mutants (version 2013A). Cdr1 deficient mutant was obtained by counterselection of the GRACE library strain on 5-Fluoroorotic Acid (5-FOA) containing plate. Clinical isolated resistant C. albicans were from Dr. David Rogers. Cryptococcus neoformans var. grubii H99 (ATCC 208821) and Candida glabrata BG2, a fluconazole-resistant clinical isolate, were used. Yeast strains were cultured at 30° C. in synthetic complete (SC) medium containing 2% glucose.
Manually Screening. Of the DBC library was carried out in 96-well flat bottom plates. Briefly, BDC library grown in YPD agar were transferred to SC medium in 96-well flat bottom plates with a 96-well pin tool and grown overnight at 30° C. Cell cultures were diluted 1:800 in fresh SC medium with or without compounds and incubated at 30° C. for 24 h. Cell growth was measured with Tecan GENios Plus microplate reader (Tecan, Switzerland).
Small number of outliers in the HIP profiling indicates few off-targets for the compound. To avoid missing genes due to the bias of PCR and sequencing, a manual screening of the DBC library with Compound 1 and FLC in 96 well plates was also carried out.

[2] = tested on: C. albicans strain HLY4123 and clinical isolates 26 and 45; experiment: Checkerboard assay (MIC90, FIC index); conditions: for MIC90: Candida albicans; for FICI: Compound 25 + fluconazole
Protocol: Checkerboard assays were carried out using four 24-well plates. The results on each plate were normalized by duplication of one row and one column with a row and column on another plate. C. albicans was grown in SC medium overnight and then diluted to an effective OD600 of 0.0625. Serial ten-fold dilutions of the test compounds (150 mM) were prepared in DMSO in 1.5 mL Eppendorf tubes. […] Concentrations of compound in rows 1-11 varied from 300 μM to 0.0003 nM; the last row 12 contained no compound. […] The plates were incubated in a rotary shaker/incubator at 30° C. for 16 h. The contents of each well was resuspended with a micropipettor and a 20 μL aliquot was added to a polystyrene cuvette and diluted with 680 μL of deionized water. The suspension was triturated again immediately before measuring the absorbance at 600 nm. The MIC90 values were determined as the lowest concentrations of the drugs (alone or in combination) that inhibited fungal growth by 90% compared with that of the drug-free wells.
In all of the strains tested, the FIC index was below 0.5, fitting the classical definition of synergy.

[3] = tested on: resistant clinical isolates of C. albicans; experiment: Screen of resistant clinical isolates, single dose, broth microdilution (growth OD600); conditions: compound 25 3 μM + fluconazole 64 μg/mL, 16 h
From the text: (Flowers, S. A., et al. Eukaryotic Cell 2012, 11, 1289-1299.) The strains grow at dramatically different rates.

Cc1c(Cl)ccc2c1NC(=O)[C@]21N[C@H](Cc2ccccc2)[C@@H]2C(=O)N(c3ccc(F)cc3)C(=O)[C@@H]21 (racemic) [Compound 1, (±)-(3R,3′R,3a′R,6a'S)-3′-benzyl-6-chloro-5′-(4-fluorophenyl)-7-methyl-2′,3′,3a′,6a′-tetrahydro-4′H-spiro[indoline-3,1′-pyrrolo[3,4-c]pyrrole]-2,4′,6′(5′H)-trione]
effect as azole-synergizer in cdr1 mutants [1]: significantly enhanced in the cdr1/CDR1 heterozygous mutant but blocked in the cdr1/cdr1 deletion strain

Cc1c(Cl)ccc2c1NC(=O)[C@@]21[C@H]2C(=O)N(c3ccccc3)C(=O)[C@H]2[C@H]2CN(C(=O)OCc3ccccc3)CCN21 (racemic) [Compound 25, (±)-benzyl (3R,3a′R,3b'S,9a'S)-6-chloro-7-methyl-1′,2,3′-trioxo-2′-phenyl-2′,3′,3a′,3b′,4′,6′,7′,9a′-octahydrospiro[indoline-3,9′-pyrrolo[3′,4′:3,4]pyrrolo[1,2-a]pyrazine]-5′(1′H)-carboxylate]
MIC90 ([2]; read-out: MICcpd (+Flc) (MIC90), clinical isolate 26, with fluconazole): 0.3 µM | MIC90 ([2]; read-out: MICcpd (+Flc) (MIC90), clinical isolate 45, with fluconazole): 0.03 µM | MIC90 ([2]; read-out: MICcpd (+Flc) (MIC90), strain HLY4123, with fluconazole): 0.03 µM | MIC90 ([2]; read-out: MICcpd (MIC90), clinical isolate 26, compound alone): > 30 µM | MIC90 ([2]; read-out: MICcpd (MIC90), clinical isolate 45, compound alone): > 30 µM | MIC90 ([2]; read-out: MICcpd (MIC90), strain HLY4123, compound alone): > 300 µM | FIC index ([2]; all of the strains tested, with fluconazole): below 0.5 | toxicity of compound alone against the strains ([2]; alone, at the solubility limit, any of the strains): did not have measurable toxicity | FICI ([2]; clinical isolate 26): 0.14 | FICI ([2]; clinical isolate 45): 0.13 | FICI ([2]; strain HLY4123): 0.25 | Growth (OD600) +Cpd25 + Fluc ([3]; clinical isolate 15): 2.64 | Growth (OD600) +Cpd25 + Fluc ([3]; clinical isolate 16): 0.43 | Growth (OD600) +Cpd25 + Fluc ([3]; clinical isolate 17): 0.79 | Growth (OD600) +Cpd25 + Fluc ([3]; clinical isolate 21): 2.02 | Growth (OD600) +Cpd25 + Fluc ([3]; clinical isolate 22): 1.28 | Growth (OD600) +Cpd25 + Fluc ([3]; clinical isolate 23): 0.60 | Growth (OD600) +Cpd25 + Fluc ([3]; clinical isolate 25): 1.59 | Growth (OD600) +Cpd25 + Fluc ([3]; clinical isolate 26): 0.83 | Growth (OD600) +Cpd25 + Fluc ([3]; clinical isolate 30): 5.38 | Growth (OD600) +Cpd25 + Fluc ([3]; clinical isolate 33): 0.88 | Growth (OD600) +Cpd25 + Fluc ([3]; clinical isolate 36): 1.07 | Growth (OD600) +Cpd25 + Fluc ([3]; clinical isolate 41): 6.52 | Growth (OD600) +Cpd25 + Fluc ([3]; clinical isolate 45): 1.03 | Growth (OD600) +Cpd25 + Fluc ([3]; clinical isolate 49): 11.29

Source: patent US11174267B2, “Spiroindolinones and therapeutic uses thereof” (The Regents of the University of California, priority 2015, dated 2021)
